Test results as given in ChEMBL document CHEMBL3885881, “DrugMatrix”.

Species: Rattus norvegicus
Assay: DrugMatrix - Regimen: Daily Repeat
Format: toxicity, organism-based, Sprague-Dawley
Parameters: regimen Daily Repeat, gender Male, age 6-8 weeks
Conditions: in vivo, sc, route subcutaneous, […]; for ABSOLUTE BASOPHIL / ABSOLUTE EOSINOPHIL / ABSOLUTE LYMPHOCYTE / ABSOLUTE MONOCYTE / ABSOLUTE SEGMENTED NEUTROPHIL / BASOPHIL / EOSINOPHIL / ERYTHROCYTE COUNT / HEMATOCRIT / HEMOGLOBIN / LEUKOCYTE COUNT / LYMPHOCYTE / MEAN CORPUSCULAR HEMOGLOBIN / MEAN CORPUSCULAR VOLUME / MONOCYTE / NEUTROPHIL / NUCLEATED RED BLOOD CELLS / PLATELET COUNT: tissue Blood; for ALANINE AMINOTRANSFERASE / ALBUMIN / ALKALINE PHOSPHATASE / ASPARTATE AMINOTRANSFERASE / BLOOD UREA NITROGEN / CARBON DIOXIDE / CHLORIDE / CHOLESTEROL / CREATINE PHOSPHOKINASE / CREATININE / GLUCOSE / LACTATE DEHYDROGENASE / LIPASE / PHOSPHORUS / POTASSIUM / SODIUM / TOTAL BILIRUBIN / TOTAL PROTEIN / URIC ACID: tissue Plasma
[1] = 0 mg/kg, 72 h, dose level Control, time 3 day
[2] = 0 mg/kg, 120 h, dose level Control, time 5 day
[3] = 50 mg/kg, 72 h, dose level Low, time 3 day

## CCCCCCCCc1ccc(O)cc1 [4-OCTYLPHENOL]
[1]
  ABSOLUTE BASOPHIL: 0 CELLS/uL
  ABSOLUTE EOSINOPHIL: 0 CELLS/uL
  ABSOLUTE LYMPHOCYTE: 9782.33 CELLS/uL
  ABSOLUTE MONOCYTE: 114.67 CELLS/uL
  ABSOLUTE SEGMENTED NEUTROPHIL: 753 CELLS/uL
  BASOPHIL: 0%
  EOSINOPHIL: 0%
  ERYTHROCYTE COUNT: 5.14 x10E6/uL
  HEMATOCRIT: 32.12%
  HEMOGLOBIN: 13.13 G/DL
  LEUKOCYTE COUNT: 10.65 x10E3/uL
  LYMPHOCYTE: 91.83%
  MEAN CORPUSCULAR HEMOGLOBIN: 25.83 pg
  MEAN CORPUSCULAR VOLUME: 62.43 fL
  MONOCYTE: 1%
  NEUTROPHIL: 7.17%
  NUCLEATED RED BLOOD CELLS: 0.17 /100WBC
  PLATELET COUNT: 657.83 x10E3/uL
  ALANINE AMINOTRANSFERASE: 60.33 u/L
  ALBUMIN: 3.83 G/DL
  ALKALINE PHOSPHATASE: 366.33 u/L
  ASPARTATE AMINOTRANSFERASE: 104.5 u/L
  BLOOD UREA NITROGEN: 12.33 mg/dL
  CARBON DIOXIDE: 23.17 mmol/L
  CHLORIDE: 96.67 MEQ/L
  CHOLESTEROL: 73.17 mg/dL
  CREATINE PHOSPHOKINASE: 545.83 u/L
  CREATININE: 0.26 mg/dL
  GLUCOSE: 144.33 mg/dL
  LACTATE DEHYDROGENASE: 147.5 u/L
  LIPASE: 9.33 u/L
  PHOSPHORUS: 10.83 mg/dL
  POTASSIUM: 5.68 MEQ/L
  SODIUM: 138.83 MEQ/L
  TOTAL BILIRUBIN: 0.17 mg/dL
  TOTAL PROTEIN: 5.42 G/DL
  URIC ACID: 0.65 mg/dL
[2]
  ABSOLUTE BASOPHIL: 0 CELLS/uL
  ABSOLUTE EOSINOPHIL: 43.33 CELLS/uL
  ABSOLUTE LYMPHOCYTE: 12883 CELLS/uL
  ABSOLUTE MONOCYTE: 166.83 CELLS/uL
  ABSOLUTE SEGMENTED NEUTROPHIL: 1290.17 CELLS/uL
  BASOPHIL: 0%
  EOSINOPHIL: 0.33%
  ERYTHROCYTE COUNT: 5.79 x10E6/uL
  HEMATOCRIT: 36.37%
  HEMOGLOBIN: 14.17 G/DL
  LEUKOCYTE COUNT: 14.38 x10E3/uL
  LYMPHOCYTE: 89.17%
  MEAN CORPUSCULAR HEMOGLOBIN: 24.48 pg
  MEAN CORPUSCULAR VOLUME: 62.83 fL
  MONOCYTE: 1.17%
  NEUTROPHIL: 9.33%
  NUCLEATED RED BLOOD CELLS: 0.5 /100WBC
  PLATELET COUNT: 1267.33 x10E3/uL
  ALANINE AMINOTRANSFERASE: 53.5 u/L
  ALBUMIN: 3.82 G/DL
  ALKALINE PHOSPHATASE: 342.33 u/L
  ASPARTATE AMINOTRANSFERASE: 83.67 u/L
  BLOOD UREA NITROGEN: 13.17 mg/dL
  CARBON DIOXIDE: 28.17 mmol/L
  CHLORIDE: 101.5 MEQ/L
  CHOLESTEROL: 70.83 mg/dL
  CREATINE PHOSPHOKINASE: 656.67 u/L
  CREATININE: 0.17 mg/dL
  GLUCOSE: 171.33 mg/dL
  LACTATE DEHYDROGENASE: 169 u/L
  LIPASE: 9.17 u/L
  PHOSPHORUS: 12.88 mg/dL
  POTASSIUM: 6.54 MEQ/L
  SODIUM: 141.2 MEQ/L
  TOTAL BILIRUBIN: 0.18 mg/dL
  TOTAL PROTEIN: 5.68 G/DL
  URIC ACID: 2.02 mg/dL
[3]
  ABSOLUTE BASOPHIL: 0 CELLS/uL
  ABSOLUTE EOSINOPHIL: 58 CELLS/uL
  ABSOLUTE LYMPHOCYTE: 8002.33 CELLS/uL
  ABSOLUTE MONOCYTE: 124.67 CELLS/uL
  ABSOLUTE SEGMENTED NEUTROPHIL: 648.33 CELLS/uL
  BASOPHIL: 0%
  EOSINOPHIL: 0.67%
  ERYTHROCYTE COUNT: 5.33 x10E6/uL
  HEMATOCRIT: 34.07%
  HEMOGLOBIN: 13.23 G/DL
  LEUKOCYTE COUNT: 8.83 x10E3/uL
  LYMPHOCYTE: 90%
  MEAN CORPUSCULAR HEMOGLOBIN: 24.83 pg
  MEAN CORPUSCULAR VOLUME: 63.87 fL
  MONOCYTE: 1.67%
  NEUTROPHIL: 7.67%
  NUCLEATED RED BLOOD CELLS: 0 /100WBC
  PLATELET COUNT: 876 x10E3/uL
  ALANINE AMINOTRANSFERASE: 50.33 u/L
  ALBUMIN: 3.9 G/DL
  ALKALINE PHOSPHATASE: 340 u/L
  ASPARTATE AMINOTRANSFERASE: 88 u/L
  BLOOD UREA NITROGEN: 10 mg/dL
  CARBON DIOXIDE: 24.67 mmol/L
  CHLORIDE: 94 MEQ/L
  CHOLESTEROL: 67.33 mg/dL
  CREATINE PHOSPHOKINASE: 672.33 u/L
  CREATININE: 0.22 mg/dL
  GLUCOSE: 130.67 mg/dL
  LACTATE DEHYDROGENASE: 143.33 u/L
  LIPASE: 9.67 u/L
  PHOSPHORUS: 11.07 mg/dL
  POTASSIUM: 6.18 MEQ/L
  SODIUM: 136.97 MEQ/L
  TOTAL BILIRUBIN: 0.1 mg/dL
  TOTAL PROTEIN: 5.4 G/DL
  URIC ACID: 0.83 mg/dL
